# ChEMBL document CHEMBL5131467, “Multivalent peptide dendrimers inhibit the fusion of viral-cellular membranes and the cellular NF-κB signaling pathway” (Eur J Med Chem, 2022)
# pIC50: −log10 of the molar value. Calls of active or inactive are those of the source. No cut-off for these calls is given here. Where a SMILES comes first, the peptide text is derived from it. Bridges are numbered along the chain shown (N, C = ends). Roman numbers before positions name the chains, in order. Side-chain parts run from the residue outwards. The star is where a group is joined. Fmoc = O=C(OCC1c2ccccc2-c2ccccc21)*
# Key:
# [1] = AUC in Kunming mouse at 10 mg/kg, ip by HPLC analysis; type: ADME, organism-based; parameters: dose 10 mg/kg, route ip; conditions: in vivo
# Erythrocyte = test: Hemolytic activity in chicken erythrocytes at up to 50 uM pre-treated with virus for 30 mins followed by addition of cell measured after 30 mins by microplate reader assay; type: toxicity, cell-based, Gallus gallus; conditions: 0.5 h
# Influenza A virus [2] = test: Antiviral activity against Influenza A virus (A/Puerto Rico/8/1934(H1N1)) infected in MDCK cells assessed as reduction in virus induced cytopathic effect during infection incubated for 1 hr by MTT assay; type: functional, organism-based
# [3] = Cytotoxicity against MDCK cells by CCK-8 assay; type: toxicity, cell-based, Canis lupus familiaris; conditions: dog
# Influenza A virus [4] = test: Antiviral activity against Influenza A virus (A/Puerto Rico/8/1934(H1N1)) infected in MDCK cells assessed as reduction in viral nucleoprotein expression level at 2 ug/ml during infection measured after 24 hrs post infection by indirect immunofluorescence assay; type: functional, organism-based; conditions: dose 2.0 µg/ml
# Influenza A virus [5] = test: Antiviral activity against Influenza A virus A/FM/1/47 infected in MDCK cells incubated for 1 hr by MTT assay; type: functional, organism-based; conditions: A/FM/1/47, MDCK
# Mus musculus [6] = test: Antiviral activity against Kunming mouse infected with Influenza A virus (A/Puerto Rico/8/1934(H1N1)) assessed as reduction in viral titer in lung homogenate at 5 mg/kg, ip administered twice a day for 3 days after 24 hrs of viral infection; type: functional, organism-based; conditions: time 3.0 day
# Influenza B virus = test: Antiviral activity against Influenza B virus 699[…] clinical isolate infected in MDCK cells incubated for 1 hr by MTT assay; type: functional, organism-based
# Mus musculus [7] = test: Antiviral activity against Kunming mouse infected with Influenza A virus (A/Puerto Rico/8/1934(H1N1)) assessed as survival rate at 5 mg/kg, ip administered twice a day with a time interval of 12 hrs for 4 days relative to control; type: functional; conditions: 96 h, time 4 day
# RAW264.7 [8] = test: Anti-inflammatory activity against mouse RAW264.7 cells assessed as reduction in LPS induced IL-1 beta level at 1 ug/ml by qRT-PCR analysis; type: functional, cell-based; conditions: dose 1.0 µg/ml
# RAW264.7 [9] = test: Anti-inflammatory activity against Influenza A virus (A/Puerto Rico/8/1934(H1N1)) s induced mouse RAW264.7 cells assessed as suppression of NF kappa B expression level 1.5 ug/ml by luciferase reporter assay; type: functional, cell-based; conditions: dose 1.5 µg/ml
# RAW264.7 [10] = test: Anti-inflammatory activity against mouse RAW264.7 cells assessed as reduction in LPS induced TNF alpha level at 1 ug/ml by qRT-PCR analysis; type: functional, cell-based; conditions: dose 1.0 µg/ml
# Influenza A virus [11] = test: Antiviral activity against Influenza A virus (A/Puerto Rico/8/1934(H1N1)) infected in MDCK cells assessed as reduction in viral nucleoprotein expression level at 2 ug/ml pre-treated with virus measured after 24 hrs post infection by indirect immunofluorescence assay; type: functional, organism-based; conditions: dose 2.0 µg/ml
# Influenza A virus [12] = test: Antiviral activity against Influenza A virus A/Aichi/2/68(H3N2) infected in MDCK cells incubated for 1 hr by MTT assay; type: functional, organism-based
# Mus musculus [13] = test: Antiviral activity against Kunming mouse infected with Influenza A virus (A/Puerto Rico/8/1934(H1N1)) assessed as recovery in body weight at 5 mg/kg, ip administered twice a day with a time interval of 12 hrs for 4 days measured from day 8 upto 15 days (Rvb =18.02 g); type: functional; conditions: time 15 day
# [14] = Half life in Kunming mouse at 10 mg/kg, ip by HPLC analysis; type: ADME, organism-based; conditions: in vivo
# Mus musculus [15] = test: Antiviral activity against Kunming mouse infected with Influenza A virus (A/Puerto Rico/8/1934(H1N1)) assessed as increase in body weight at 5 mg/kg, ip measured after 15 days (reference value: 178.7%); type: functional; conditions: time 15 day
# [16] = Tmax in Kunming mouse at 10 mg/kg, ip by HPLC analysis; type: ADME, organism-based; conditions: in vivo
# Influenza A virus [17] = test: Antiviral activity against Influenza A virus 699(H3) clinical isolate infected in MDCK cells incubated for 1 hr by MTT assay; type: functional, organism-based
# Influenza A virus [18] = test: Induction of morphological changes in Influenza A Puerto Rico/8/1934/H1N1 assessed as increase in broken edge of the virus incubated for 30 mins by transmission electron microscopic analysis; type: functional, organism-based; conditions: dose 10-50 µg/ml, DDE = dose-dependent effect
# Influenza A virus [19] = test: Antiviral activity against Influenza A virus (A/Puerto Rico/8/1934(H1N1)) infected in MDCK cells assessed as reduction in virus induced cytopathic effect after infection incubated for 1 hr by MTT assay; type: functional, organism-based
# Influenza A virus [20] = test: Antiviral activity against influenza A/Thailand/Kan353/2004 infected in MDCK cells assessed as inhibition of syncytium formation at 5 ug/ml incubated for 3 hrs by giemsa staining based assay relative to control; type: functional; parameters: scale not given: the % may be the effect or the level left; conditions: dose 5 µg/ml
# Influenza A virus [21] = test: Antiviral activity against Influenza A Puerto Rico/8/1934/H1N1 infected in human A549 cells assessed as inhibition of viral replication after 24 hrs by hemagglutination assay; type: functional, organism-based
# Influenza A virus [22] = test: Antiviral activity against Influenza A virus (A/Puerto Rico/8/1934(H1N1)) infected in MDCK cells after treatment incubated for 1 hr by MTT assay; type: functional, organism-based
# [23] = Cmax in Kunming mouse at 10 mg/kg, ip by HPLC analysis; type: ADME, organism-based; parameters: dose 10 mg/kg, route ip; conditions: in vivo
# RAW264.7 [24] = test: Anti-inflammatory activity against LPS induced mouse RAW264.7 cells assessed as suppression of NF kappa B expression level at 1.5 ug/ml by luciferase reporter assay; type: functional, cell-based; conditions: dose 1.5 µg/ml
# RAW264.7 [25] = test: Anti-inflammatory activity against mouse RAW264.7 cells assessed as reduction in LPS induced TNF alpha level at 1 ug/ml by ELISA method; type: functional; conditions: dose 1 µg/ml
# Influenza A virus [26] = test: Antiviral activity against Influenza A virus (A/Puerto Rico/8/1934(H1N1)) infected in MDCK cells assessed as reduction in HA mRNA level at 1 ug/ml measured after 24 hrs post infection by qRT-PCR analysis; type: functional, organism-based; conditions: dose 1.0 µg/ml
# RAW264.7 [27] = test: Anti-inflammatory activity against mouse RAW264.7 cells assessed as reduction in Influenza A virus (A/Puerto Rico/8/1934(H1N1)) induced TNF alpha level at 5 ug/ml by ELISA method; type: functional; conditions: dose 5 µg/ml
# Mus musculus [28] = test: Antiviral activity against Kunming mouse infected with Influenza A virus (A/Puerto Rico/8/1934(H1N1)) assessed as recovery in body weight at 1.25 mg/kg, ip administered twice a day with a time interval of 12 hrs for 4 days measured from day 8 upto 15 days (reference value: 17.58 g); type: functional; conditions: time 15 day
# Influenza A virus [29] = test: Antiviral activity against Influenza A virus (A/Puerto Rico/8/1934(H1N1)) infected in MDCK cells assessed as reduction in M1 mRNA level at 1 ug/ml measured after 24 hrs post infection by qRT-PCR analysis; type: functional, organism-based; conditions: dose 1.0 µg/ml
# Influenza A virus [30] = test: Antiviral activity against influenza A/Thailand/Kan353/2004 infected in MDCK cells assessed as inhibition of syncytium formation at 2.5 ug/ml incubated for 3 hrs by giemsa staining based assay relative to control; type: functional; parameters: scale not given: the % may be the effect or the level left; conditions: dose 2.5 µg/ml
# Influenza A virus [31] = test: Antiviral activity against Influenza A virus (A/Puerto Rico/8/1934(H1N1)) infected in MDCK cells assessed as reduction in virus induced cytopathic effect pretreated with compound incubated for 1 hrs by MTT assay; type: functional, organism-based
# RAW264.7 [32] = test: Anti-inflammatory activity against mouse RAW264.7 cells assessed as reduction in influenza A virus induced IL-1 beta level at 1 ug/ml by qRT- PCR; type: functional, cell-based; conditions: dose 1.0 µg/ml
compound,measurement,setting,value
NCCCC[C@H](NC(=O)OCC1c2ccccc2-c2ccccc21)C(=O)N[C@@H](CCCCN)C(=O)N[C@@H](Cc1c[nH]c2ccccc12)C(=O)N[C@@H](CCCCN)C(=O)NCCCC[C@H](NC(=O)[C@H](CCCCN)NC(=O)[C@H](Cc1c[nH]c2ccccc12)NC(=O)[C@H](CCCCN)NC(=O)[C@H](CCCCN)NC(=O)OCC1c2ccccc2-c2ccccc21)C(=O)NCCCC[C@H](NC(=O)[C@H](CCCCNC(=O)[C@H](CCCCN)NC(=O)[C@H](Cc1c[nH]c2ccccc12)NC(=O)[C@H](CCCCN)NC(=O)[C@H](CCCCN)NC(=O)OCC1c2ccccc2-c2ccccc21)NC(=O)[C@H](CCCCN)NC(=O)[C@H](Cc1c[nH]c2ccccc12)NC(=O)[C@H](CCCCN)NC(=O)[C@H](CCCCN)NC(=O)OCC1c2ccccc2-c2ccccc21)C(=O)NCC(=O)O (I: Fmoc-KKWKK([Lys-Trp-Lys-Lys-Fmoc])KG-OH / II: Fmoc-KKWKK([Lys-Trp-Lys-Lys-Fmoc]); amide I:6-II:C),AUC,[1],11900 ng·h/mL
same,Activity,Erythrocyte,Toxic
same,pIC50,Influenza A virus [2],6.51
same,CC50,[3],37.8 µM
same,Activity,Influenza A virus [4],Active
same,pIC50,Influenza A virus [5],6.77
same,Activity,Mus musculus [6],Active
same,pIC50,Influenza B virus,6.49
same,survival at 5 mg/kg,Mus musculus [7],33%
same,Activity,RAW264.7 [8],Active
same,Activity,RAW264.7 [9],Active
same,Activity,RAW264.7 [10],Active
same,Activity,Influenza A virus [11],Active
same,pIC50,Influenza A virus [12],6.62
same,Activity,Mus musculus [13],26.99 g
same,half-life,[14],2.88 h
same,Activity,Mus musculus [15],129.4%
same,Tmax,[16],1.03 h
same,pIC50,Influenza A virus [17],6.92
same,Activity,Influenza A virus [18],Dde
same,pIC50,Influenza A virus [19],4.93
same,Activity,Influenza A virus [20],90%
same,Activity,Influenza A virus [21],Active
same,pIC50,Influenza A virus [22],6.49
same,Cmax,[23],5020 ng/mL
same,Activity,RAW264.7 [24],Active
same,Activity,RAW264.7 [25],250.5 pg/mL
same,Activity,Influenza A virus [26],Active
same,Activity,RAW264.7 [27],328.4 pg/mL
same,Activity,Mus musculus [28],25.84 g
same,Activity,Influenza A virus [29],Active
same,Activity,Influenza A virus [30],63%
same,pIC50,Influenza A virus [31],6.62
same,Activity,RAW264.7 [32],Active
